Legend:
[1] = cited from earlier work
93 subtype B viruses = system: 93 subtype B viruses; design: method as in protocol Section 1.4.1.2; conditions: ref protocol Section 1.4.1.2, read-out: EC50, median; cited from earlier work
[2] = design: method as in protocol Section 1.4.1.2; conditions: ref protocol Section 1.4.1.2; cited from earlier work
[3] = Adverse events through Week 24; assay type: in vivo, HIV-1-infected adults
Experimental: (§1) Physical examinations, measurement of vital signs, and clinical laboratory evaluations were performed at Weeks 4, 8, 12, 16 and 24, and participants were closely monitored for AEs and SAEs throughout. AEs were classified according to MedDRA version 19.0. The severity and relationship to study drug was assessed by the local investigator.

CD4+ T-cell count = test: Change from baseline in CD4+ T-cell count; assay type: in vivo, HIV-1-infected adults; conditions: Week 24
From the text: The primary endpoint was determination of the proportion of participants with plasma HIV-1 RNA <40 copies/mL at Week 24 after treatment with GSK3532795 or efavirenz (EFV). Secondary endpoints included mean changes from baseline in CD4+ T-cell count and mean changes in the percentage of CD4+ T-cell count over time. Secondary safety endpoints included frequency of adverse events (AEs), serious AEs (SAEs), and AEs leading to discontinuation through Week 24. Further secondary endpoints included emergence of drug resistance. Exploratory endpoints included assessment of the impact of Gag polymorphisms on the efficacy of GSK3532795. […] In addition, though Gag A364 is essentially invariant across genotypes, it was included in the primary endpoint analysis since emergent resistance to GSK3532795 (both in vitro and in Phase IIa studies) mapped, in part, to the A364V change. Thus, our analysis at the Week 24 primary endpoint was limited to these four positions. Pharmacokinetic (PK) analyses were performed to evaluate treatment exposure and assess the dose proportionality of GSK3532795 when co-administered with tenofovir disoproxil fumarate (TDF)/emtricitabine (FTC).

[4] = Clinical laboratory evaluations; assay type: in vivo, HIV-1-infected adults
Experimental: as §1

[5] = GSK3532795: range across 60, 120, 180 mg arms, EFV 600 mg
[6] = GSK3532795 arms pooled, EFV 600 mg, abstract

Question: With `C=C(C)[C@@H]1CC[C@]2(NCCN3CCS(=O)(=O)CC3)CC[C@]3(C)[C@H](CC[C@@H]4[C@@]5(C)CC=C(c6ccc(C(=O)O)cc6)C(C)(C)[C@@H]5CC[C@]43C)[C@@H]12` [GSK3532795] as the compound, how does the “Increase in serum ALT activity” value ([1]; 20 mg/kg/day, 1 female, ref protocol Section 1.4.1.2) read?
Answer: 2.10 × pretest

Question: And the “Loss of body weight” value ([1]; 20 mg/kg/day, 2 females, ref protocol Section 1.4.1.2)?
Answer: up to 8%

Question: And the NOAEL ([1]; dog, in vivo)?
Answer: 8 mg/kg/day

Question: And the “NOAEL dose (heart rate)” value ([1]; dog, in vivo)?
Answer: 20 mg/kg/day

Question: And the EC50 (93 subtype B viruses)?
Answer: 2.2 nM

Question: And the Route of elimination [2]?
Answer: eliminated principally via metabolism followed by excretion in bile with little renal excretion

Question: And the Tissue distribution [2]?
Answer: distributed preferentially into the duodenum, liver, and lymph nodes with little penetration into the brain

Question: And the “Mean time to onset of first diarrhea event” value (from here on “Mean time to onset”) ([3]; 60 mg arm)?
Answer: 48.4 days

Question: What about the “Mean time to onset” value ([3]; 120 mg arm) of the same compound?
Answer: 19.9 days

Question: What about the “Mean duration of first diarrhea event” value ([3]; 120 mg arm (longest)) of the same compound?
Answer: 104.2 days

Question: What about the “Mean time to onset” value ([3]; 180 mg arm) of the same compound?
Answer: 11.3 days

Question: And the “SAE considered related to study drug” value ([3]; GSK3532795 120 mg (no action taken), EFV (led to discontinuation))?
Answer: Grade 3 abdominal pain

Question: And the “Grade 1–4-related abdominal pain” value [3, 5]?
Answer: 6–16%

Question: And the “Grade 1–4-related diarrhea” value [3, 5]?
Answer: 27–51%

Question: What about the “Adverse events leading to discontinuation” value [3, 6] of the same compound?
Answer: 5%

Question: What about the Serious adverse events [3, 6] of the same compound?
Answer: 5%

Question: And the “Frequency of Grade 1–4-related AEs” value ([3]; GSK3532795 arms pooled, EFV 600 mg, through Week 24)?
Answer: 53%

Question: What about the “Mean change in CD4+ T-cell count (SD)” value (CD4+ T-cell count; 60 mg) of the same compound?
Answer: 94.3 (SD 175.00) cells/μL

Question: And the “Mean change in CD4+ T-cell count (SD)” value (CD4+ T-cell count; 120 mg)?
Answer: 79.7 (SD 199.46) cells/μL

Question: What about the “Mean change in CD4+ T-cell count (SD)” value (CD4+ T-cell count; 180 mg) of the same compound?
Answer: 92.5 (SD 144.04) cells/μL

Question: And the “Grade 3 low potassium” value ([4]; 60 mg arm)?
Answer: one participant

Question: And the “Mean total cholesterol, direction of change” value ([4]; 120 mg arm, baseline to Week 24)?
Answer: decreased

Question: And the “Grade 3 laboratory abnormalities in triglycerides and creatinine clearance (CrCl)” value ([4]; 180 mg arm)?
Answer: one participant each

Question: What about the “Grade 3 liver chemistry abnormalities” value ([4]; GSK3532795 arms) of the same compound?
Answer: three participants

Question: And the “Mean decrease in triglyceride levels” value ([4]; range across all GSK3532795 arms, baseline to Week 24)?
Answer: 5.0 to 12.9 mg/dL

Source: PMC6198970, “Safety, efficacy, and dose response of the maturation inhibitor GSK3532795 (formerly known as BMS-955176) plus tenofovir/emtricitabine once daily in treatment-naive HIV-1-infected adults: Week 24 primary analysis from a randomized Phase IIb trial” (PLoS ONE, 2018)
